Data from PMC10672269, “Evaluation of Carbonic Anhydrase, Acetylcholinesterase, Butyrylcholinesterase, and α-Glycosidase Inhibition Effects and Antioxidant Activity of Baicalin Hydrate” (Life, 2023).
Values joined by “and” are separate entries in the source; they are usually repeats but may differ in a detail not shown here. Equal values may be shown once. Read-outs that look alike come from different tables or passages of the source.

Experiments:
[1] = Cu2+ reducing ability (cupric ions reducing); conditions: at 30 μg/mL
Experimental: The technique of Apak et al. was utilized to assess the cupric ions (Cu^2+) reducing capacity of baicalin hydrate. After carrying out the required experimental procedures, the absorbances were detected at 450 nm using a spectrophotometer (Shimadzu, UV-1280, Kyoto, Japan). To do so, 0.2 mL CuCl2 solution (10 mM), 200 µL neocuproine solution (7.5 mM), and 200 µL CH3COONa buffer solution (1.0 M) were added to a test tube. The solution was mixed with different concentrations of baicalin hydrate (10–30 μg/mL). The total volume then reduced to 1.5 mL by adding distilled water and stored at room temperature. After 30 min incubation, the absorbances of the samples were measured at 450 nm. The increased absorbance of the reaction reflects increased reduction capacity.

[2] = Fe3+ reducing ability (potassium ferricyanide reduction); conditions: at 30 μg/mL
Experimental: According to prior investigation, baicalin hydrate’s ability to reduce Fe^3+ was achieved. Also, according to previous works, the Fe^3+-reducing effect of baicalin hydrate was tested. Briefly, 0.75 mL of deionized water and different doses of baicalin hydrate (10–30 μg/mL) were combined with 1.25 mL sodium phosphate buffer (pH 6.6, 0.2 M) and 1.25 mL of K3[Fe(CN)6] (1%). After 30 min incubation at 30 °C, the reaction medium was acidified with 1 mL trichloroacetic acid (10%, TCA) and re-incubated in the dark for 30 min. Finally, 0.5 mL of FeCl3 (0.1%) was transferred to the solution. The absorbance values of baicalin hydrate and references were recorded at 700 nm. The increased absorbance of the reaction mixture reflects an increasing reduction ability.

DMPD radical scavenging = assay: DMPD radical scavenging
Experimental: Baicalin hydrate was evaluated for its capacity to remove DMPD^•+ using the Fogliano technique. For this purpose, 0.5 mL of FeCl3 (50 mM) and 1.5 mL of DMPD solution were added to the buffer solution (pH 5.3, 0.1 M). Then, this mixture was added to 1 mL of different concentrations (10–30 μg/mL) of baicalin hydrate. Then, the total volume was adjusted to 4 mL using deionized water. Finally, 1 mL of DMPD radicals were added, and their absorbances were recorded at 505 nm.
(§1) The IC50 values were determined using plots of activity (%) versus baicalin hydrate. Ki values and other inhibition factors were determined using Lineweaver–Burk graphs.

DPPH radical scavenging = assay: DPPH radical scavenging
Experimental: The Blois technique was used to test the DPPH^• scavenging capacity of baicalin hydrate. Briefly, 0.25 mL of different concentrations of baicalin hydrate in ethanol (10–30 μg/mL) and 0.25 mL of DPPH radical solution (0.3 mM) in ethanol were combined with 1 mL ethanol in test tubes. The mixture was then incubated at 37 °C for 30 min. The DPPH radical scavenging activities of baicalin hydrate were measured at 517 nm.
as §1

ABTS radical scavenging = assay: ABTS radical scavenging
Experimental: ABTS^•+ scavenging capacity of baicalin hydrate was measured according to a different work and was detected at 734 nm. ABTS^•+ was produced by the reaction of 2 mM ABTS in water with 2.45 mM potassium persulfate (K2S2O8), incubated in the dark at room temperature for five hours. Before usage, the ABTS^•+ solution was diluted to obtain an absorbance of 0.750 ± 0.025 at 734 nm with phosphate buffer (0.1 M, pH 7.4). Then, 1 mL of ABTS^•+ solution was added to 3 mL of baicalin hydrate in ethanol at different concentrations (10–30 µg/mL).
as §1

[3] = cited from earlier work; for median inhibitory concentration (IC50): DPPH tests in a different investigation; for DPPH radical scavenging IC50: previous reports
[4] = molecular target: T1, acetylcholinesterase (AChE) (Electrophorus electricus, UniProt O42275); assay: Acetylcholinesterase inhibition (Ellman); assay type: biochemical, electric eel (Electrophorus electricus)
T1 construct: AChE was obtained from electric eel (Electrophorus electricus); from tissue

[5] = molecular target: T2, butyrylcholinesterase (BChE) (Equus caballus, UniProt P81908); assay: biochemical; parameters: species or system equine
T2 construct: BChE was purified from equine serum; from tissue; host or cells: equine serum

hCA II isoenzyme = molecular target: T3, hCA II isoenzyme (Homo sapiens, UniProt P00918); assay: Human carbonic anhydrase II inhibition (esterase activity); assay type: biochemical
T3 construct: hCA II isoenzyme was purified from fresh human erythrocytes; from tissue
Experimental: hCA II isoenzyme was purified from fresh human erythrocytes. The erythrocytes were spun at 10,000× g for 30 min. The serum was then separated, and the pH was adjusted to 8.7 using solid Tris. Sepharose-4B-L-Tirozyne sulfanilamide affinity column chromatography was used to purify the CA II isoenzyme. […] Sodium acetate/NaClO4 (0.5 M, pH 5.6, 25 °C) was then used to elute the hCA II isozyme. The Bradford technique was used to measure the protein quantity throughout the purification process. Bovine serum albumin was employed as a reference protein. SDS-PAGE was used to monitor the purity of the hCA II isoform. Esterase activity was performed throughout hCA II’s purification and inhibition processes.
as §1

α-glycosidase = assay: α-Glycosidase inhibition (p-NPG substrate); assay type: biochemical, Saccharomyces cerevisiae
Experimental: The inhibition effects of baicalin hydrate on α-glycosidase (from Saccharomyces cerevisiae) were assessed according to the procedure outlined by Tao et al.. p-Nitrophenyl-D-glucopyranoside (p-NPG) was used as a substrate for α-glycosidase. Briefly, 75 μL phosphate buffer (pH 7.4) was mixed with 5 μL of the sample and 20 μL α-glycosidase enzyme solution in a phosphate buffer (0.15 U/mL, pH 7.4). After preincubation, 50 μL of p-nitrophenyl-D-glycopyranoside (p-NPG) in a phosphate buffer (5 mM, pH 7.4) was transferred, and the solution was incubated at 37 °C. The absorbance of the samples was measured at 405 nm. The amount of enzyme that catalyzed […] of substrate per minute (pH 7.4) was one α-glycosidase unit.
as §1

[6] = parameters: method as in PMID 31832335, PMID 16243424, PMID 36297576, doi:10.1016/j.fbio.2022.101557, PMID 37693735; conditions: other existing studies; cited from earlier work
[7] = cited from earlier work
[8] = parameters: method as in PMID 31832335, PMID 16243424, PMID 24980540, PMID 36297576, doi:10.1016/j.arabjc.2009.12.008; conditions: at similar concentration; cited from earlier work
AChE = conditions: cited from earlier work; for Ki: read-out: Ki towards AChE
[9] = parameters: method as in PMID 31832335, PMID 36144638, PMID 37693735, PMID 21554120, PMID 36297576; conditions: at the same concentration; cited from earlier work

T1 sequence (O42275 24-633): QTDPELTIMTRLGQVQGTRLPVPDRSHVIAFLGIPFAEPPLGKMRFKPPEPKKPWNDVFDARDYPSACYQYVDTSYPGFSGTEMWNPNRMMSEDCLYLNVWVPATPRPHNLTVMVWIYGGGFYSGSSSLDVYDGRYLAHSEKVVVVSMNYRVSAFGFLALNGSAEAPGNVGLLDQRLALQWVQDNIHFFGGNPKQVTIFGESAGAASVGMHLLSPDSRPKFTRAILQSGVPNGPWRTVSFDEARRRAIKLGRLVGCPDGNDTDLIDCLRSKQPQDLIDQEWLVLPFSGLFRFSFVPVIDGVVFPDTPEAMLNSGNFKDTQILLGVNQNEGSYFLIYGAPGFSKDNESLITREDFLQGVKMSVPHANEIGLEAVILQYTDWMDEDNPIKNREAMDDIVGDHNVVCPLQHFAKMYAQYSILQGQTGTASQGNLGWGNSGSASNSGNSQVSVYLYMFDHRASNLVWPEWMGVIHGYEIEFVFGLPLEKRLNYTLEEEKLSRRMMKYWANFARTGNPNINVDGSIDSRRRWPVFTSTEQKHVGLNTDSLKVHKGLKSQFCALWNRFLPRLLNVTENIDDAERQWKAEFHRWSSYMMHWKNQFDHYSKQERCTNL
T2 sequence (P81908 whole entry): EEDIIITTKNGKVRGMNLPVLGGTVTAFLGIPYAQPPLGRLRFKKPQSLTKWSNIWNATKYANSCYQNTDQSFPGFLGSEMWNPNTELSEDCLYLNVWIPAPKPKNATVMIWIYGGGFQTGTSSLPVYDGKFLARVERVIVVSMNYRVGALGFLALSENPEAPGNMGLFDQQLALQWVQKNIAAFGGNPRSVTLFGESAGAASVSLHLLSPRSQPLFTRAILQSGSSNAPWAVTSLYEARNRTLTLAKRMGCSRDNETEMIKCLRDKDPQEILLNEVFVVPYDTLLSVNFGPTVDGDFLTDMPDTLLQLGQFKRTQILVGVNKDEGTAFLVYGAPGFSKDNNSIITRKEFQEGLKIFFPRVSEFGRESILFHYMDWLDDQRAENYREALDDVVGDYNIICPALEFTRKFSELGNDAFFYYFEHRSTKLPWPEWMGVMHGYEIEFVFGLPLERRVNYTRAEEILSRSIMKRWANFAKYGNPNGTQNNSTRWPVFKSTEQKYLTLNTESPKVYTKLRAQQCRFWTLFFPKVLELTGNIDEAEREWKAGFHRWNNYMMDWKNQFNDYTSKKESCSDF

Compound: COc1ccc(O)c(C(C)(C)C)c1 [BHA, butylated hydroxyanisole]
- Cu^2+ reducing, absorbance λ (450 nm) [1]: 2.216 ± 0.059 and 2.216
- Fe^3+ reducing, absorbance λ (700 nm) [2]: 2.347 ± 0.046 and 2.347
- DMPD•+ scavenging IC50 (DMPD radical scavenging): 11.99 µg/mL
- DPPH• scavenging IC50 (DPPH radical scavenging): 10.10 µg/mL
- ABTS•+ scavenging IC50 (ABTS radical scavenging): 5.07 µg/mL

Compound: Cc1cc(C(C)(C)C)c(O)c(C(C)(C)C)c1 [BHT, butylated hydroxytoluene]
- Cu^2+ reducing, absorbance λ (450 nm) [1]: 2.044 ± 0.041 and 2.044
- Fe^3+ reducing, absorbance λ (700 nm) [2]: 0.952 ± 0.023 and 0.952
- median inhibitory concentration (IC50) [3]: 21.7 µg/mL
- DMPD•+ scavenging IC50 (DMPD radical scavenging): 8.72 µg/mL
- DPPH• scavenging IC50 (DPPH radical scavenging): 25.95 µg/mL
- ABTS•+ scavenging IC50 (ABTS radical scavenging): 6.99 µg/mL

Compound: O=C(O)[C@H]1O[C@@H](Oc2cc3oc(-c4ccccc4)cc(=O)c3c(O)c2O)[C@H](O)[C@@H](O)[C@@H]1O [Baicalin hydrate, baicalin hydrate]
- IC50 [4]: 14.7 nM
- Ki [4]: 10 ± 2.86 nM
- Selectivity index (Ki for AChE/Ki BChE) [4]: 2.86
- Cu^2+ reducing, absorbance λ (450 nm) [1]: 0.344
- Cu^2+ reducing, absorbance λ (450 nm) ([1]; listed as baicalin hydrate): 0.344 ± 0.033
- IC50 [5]: 12.3 nM
- Ki ([5]; n: 3, Lineweaver–Burk): 3.5 ± 0.68 nM
- IC50 (hCA II isoenzyme): 31.1 nM
- Ki (hCA II isoenzyme): 19.3 ± 1.79 nM
- Fe^3+ reducing, absorbance λ (700 nm) [2]: 1.249
- Fe^3+ reducing, absorbance λ (700 nm) ([2]; listed as baicalin hydrate): 1.249 ± 0.014
- median inhibitory concentration (IC50) [3]: 17.0 µg/mL
- DMPD•+ scavenging IC50 (DMPD radical scavenging): 90.91 µg/mL
- DPPH• scavenging IC50 (DPPH radical scavenging): 13.40 µg/mL
- ABTS•+ scavenging IC50 (ABTS radical scavenging): 38.37 µg/mL
- IC50 (α-glycosidase): 24.6 nM
- Ki (α-glycosidase; n: 3, Lineweaver–Burk, read-out: Ki α-Gly): 27 ± 9.91 nM

Compound: O=C(/C=C/c1ccc(O)c(O)c1)OCCc1ccccc1 [CAPE, caffeic acid phenethyl ester]
- DMPD•+ scavenging IC50 [6]: 26.70 µg/mL
- DPPH radical scavenging IC50 [3]: 3.30 µg/mL
- ABTS•+ scavenging IC50 [7]: 9.80 µg/mL
- Fe^3+ reducing absorbance [8]: 2.509

Compound: Cc1c(C)c2c(c(C)c1O)CCC(C)(C(=O)O)O2 (centres unmarked) [Trolox]
- Cu^2+ reducing, absorbance λ (450 nm) [1]: 1.548 ± 0.024 and 1.548
- Fe^3+ reducing, absorbance λ (700 nm) [2]: 2.119 ± 0.001 and 2.119
- DMPD•+ scavenging IC50 (DMPD radical scavenging): 4.33 µg/mL
- DPPH• scavenging IC50 (DPPH radical scavenging): 7.059 µg/mL
- ABTS•+ scavenging IC50 (ABTS radical scavenging): 6.16 µg/mL

Compound: O=C1O[C@H]([C@@H](O)CO)C(O)=C1O [ascorbic acid, reference compound]
- median inhibitory concentration (IC50) [3]: 19.6 µg/mL

Compound: O=C(O)[C@H]1O[C@@H](Oc2cc3oc(-c4ccccc4)cc(=O)c3c(O)c2O)[C@H](O)[C@@H](O)[C@@H]1O [baicalin]
- IC50 (AChE; a different study, read-out: 50% inhibition of AChE activity (IC50)): 124000 nM
- IC50 ([3]; read-out: DPPH radical IC50): 64900 nM

Compound: O=C(O)/C=C/c1ccc(O)c(O)c1 [caffeic acid]
- Fe^3+ reducing absorbance [8]: 2.769

Compound: O=c1oc2cc(O)ccc2c2oc3cc(O)ccc3c12 [coumestrol]
- DMPD•+ scavenging IC50 [6]: 12.81 µg/mL
- Ki (AChE): 21.4 nM
- DPPH radical scavenging IC50 [3]: 25.95 µg/mL
- ABTS•+ scavenging IC50 [7]: 12.24 µg/mL
- Fe^3+ reducing absorbance [8]: 0.739
- Cu^2+ reduction absorbance [9]: 0.780

Compound: C=CCc1ccc(O)c(OC)c1 [eugenol]
- DMPD•+ scavenging IC50 [6]: 10.04 µg/mL
- DPPH radical scavenging IC50 [3]: 16.06 µg/mL
- ABTS•+ scavenging IC50 [7]: 7.84 µg/mL
- Cu^2+ reduction absorbance [9]: 0.762

Compound: COc1ccc2c(c1O)-c1c(O)c(OC)cc3c1[C@H](C2)[N+](C)(C)CC3 [magnofluorine]
- DMPD•+ scavenging IC50 [6]: 15.16 µg/mL
- DPPH radical scavenging IC50 [3]: 10.58 µg/mL
- ABTS•+ scavenging IC50 [7]: 27.61 µg/mL
- Fe^3+ reducing absorbance [8]: 0.967
- Cu^2+ reduction absorbance [9]: 0.468

Compound: CCCCCc1cc(O)cc(O)c1 [olivetol]
- DMPD•+ scavenging IC50 [6]: 19.25 µg/mL
- DPPH radical scavenging IC50 [3]: 17.77 µg/mL
- ABTS•+ scavenging IC50 [7]: 1.94 µg/mL
- Cu^2+ reduction absorbance [9]: 1.314

Compound: O=c1c(O)c(-c2ccc(O[C@@H]3O[C@H](CO)[C@@H](O)[C@H](O)[C@H]3O)c(O)c2)oc2cc(O)cc(O)c12 [spiraeoside]
- DMPD•+ scavenging IC50 [6]: 8.15 µg/mL
- Ki (AChE): 3.4 nM
- DPPH radical scavenging IC50 [3]: 28.51 µg/mL
- ABTS•+ scavenging IC50 [7]: 7.48 µg/mL
- Fe^3+ reducing absorbance [8]: 1.012
- Cu^2+ reduction absorbance [9]: 0.519

Compound: O=C1c2c(O)cc(O)cc2OC(c2ccc(O)c(O)c2)C1O (centres unmarked) [taxifolin]
- DMPD•+ scavenging IC50 [6]: 173.25 µg/mL
- Ki (AChE): 16.7 nM
- DPPH radical scavenging IC50 [3]: 77.00 µg/mL
- ABTS•+ scavenging IC50 [7]: 0.83 µg/mL
- Cu^2+ reduction absorbance [9]: 0.750

Compound: O=c1[nH]c(=O)c2[nH]c(=O)[nH]c2[nH]1 [uric acid]
- Fe^3+ reducing absorbance [8]: 0.432

Compound: CC(=O)c1c(O)c(C)c(O)c2c1OC1=CC(=O)C(C(C)=O)C(=O)C12C (centres unmarked) [usnic acid]
- DMPD•+ scavenging IC50 [6]: 33.00 µg/mL
- DPPH radical scavenging IC50 [3]: 49.50 µg/mL
- ABTS•+ scavenging IC50 [7]: 10.4 µg/mL
- Fe^3+ reducing absorbance [8]: 0.278
- Cu^2+ reduction absorbance [9]: 0.277

Compound: Cc1c(C)c2c(c(C)c1O)CC[C@@](C)(CCC[C@H](C)CCC[C@H](C)CCCC(C)C)O2 [α-Tocopherol]
- Cu^2+ reducing, absorbance λ (450 nm) [1]: 0.816 ± 0.041 and 0.816
- Fe^3+ reducing, absorbance λ (700 nm) [2]: 0.957 ± 0.018 and 0.957
- DMPD•+ scavenging IC50 (DMPD radical scavenging): 7.11 µg/mL
- DPPH• scavenging IC50 (DPPH radical scavenging): 11.31 µg/mL
- ABTS•+ scavenging IC50 (ABTS radical scavenging): 8.37 µg/mL

Compound: L-Adrenaline [reference compound]
- DMPD•+ scavenging IC50 [6]: 15.6 µg/mL
- DPPH radical scavenging IC50 [3]: 30.6 µg/mL
- ABTS•+ scavenging IC50 [7]: 6.93 µg/mL

Compound: tannic acid
- Fe^3+ reducing absorbance [8]: 2.428
